The nature of data set [1]: Cell-based transwell assay with MDCK-low efflux monolayers (passive permeability). Type of data set: in vitro ADME. The settings on record: dog; MDCK-LE monolayers. On the procedure:
(§1) Cell-based transwell assays with MDCK-low efflux monolayers: Compounds (A1) and 2-15 were tested in MDCK cell sub-clones with low effluxt ransporter activity (MDCK-LE) in order to determine their passive permeability. The incubations were performed at a contract research organization as described previously.

The subject of a further data set is MDCK-LE monolayers. The data set is described as above. In kind it is in vitro ADME. The settings on record: MDCK-LE monolayers. On the procedure:
as §1

The nature of data set [2]: EPSA determination by supercritical fluid chromatography. In kind it is physicochemical. The settings on record: supercritical fluid chromatography, Chirex 3014 column; modified EPSA method, SFC; read-out: EPSA. In short, it runs like this:
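SFC on a Chirex 3014 column ([…], 3×100 mm, 100 Å). Gradient runs linearly from 5% to 60% methanol containing 20 mM ammonium formate, in scCO2, over 4.5 min.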

Data set [3] can be described thus: Plasma incubation of compound (A1), cynomolgus monkey plasma. Type of data set: in vitro ADME. On the procedure:
Plasma incubations and sample preparation: Compound (A1) was spiked at 5.00 μg/mL in PBS and pooled mixed gender mouse (CD-1), cynomolgus monkey and human plasma. Samples were incubated on a Thermomixer (Eppendorf) at 37° C. while shaking at 650 rpm. Aliquots of 50 μL (n=3) were drawn from each incubation tube following 0, 0.5, 1, 2, 4, 8 and 24 h of incubation. 50 μL of sample was quenched with 200 μL of acetonitrile, containing both generic internal standards, glybenclamide and warfarin, at 62.5 ng/mL. Samples were briefly vortexed and centrifuged for 20 min at 4000 rpm and 4° C. 200 μL of the supernatant was transferred into a clean 800 μL 96-well sample collection plate.
Quantification by LC-MS/MS: LC-MS/MS analysis was conducted with a Shimadzu Nexera UPLC coupled to AB Sciex QTRAP 6500 using the SRM acquisition mode (3 μL injected). Samples were analyzed using a ACE 3° C.18-PFP (3 μM, 2.1×50 mm column) at a column temperature of 65° C. […] Quantification of compound (A1) and 5 was performed by MS-MRM (electrospray in positive mode, ion spray voltage: 5000 V, source temperature: 500° C., curtain gas: 25 psig, nebulizer gas: 60 psig, turbo ion spray gas: 40 psig, mass range: low, resolution Q1/Q3: unit, collision gas: medium, dwell time: 12 msec). […] Peak integration and quantification was conducted with the AB Sciex Analyst software (v.1.7) using the Analyst Classic algorithm.

Data set [4] has as its system Gαq-mutant uveal melanoma xenografts. The settings on record: systemically administered; cited from earlier work.

Starred links: 1 amine or outer side, 2 acyl side, 3 side chain; linkers in the order of their positions; H or OH if unused. Positions of bridges follow the written chain, without caps; N, C: chain ends. Non-standard residues stand in square brackets, D forms with d. Residues, ends and D or L forms follow the SMILES beside them. *: point of attachment. Leu(3R-OH,Nα-propionyl) = CCC(=O)N[C@H](C(=O)*)[C@H](O)C(C)C; X1 = CC(C)[C@@H](O[*:3])[C@H](N[*:1])C(=O)[*:2]; NMeT = CN[C@H](C(=O)O)[C@@H](C)O; dPhLac = O=C(O)[C@H](O)Cc1ccccc1; NMeA = CN[C@@H](C)C(=O)O; NMeDha = C=C(NC)C(=O)O

Consider one compound from patent US20240252668A1, “ANTIBODY DRUG CONJUGATES AND METHODS FOR MAKING THEREOF” (Novartis AG, priority 2021, published 2024).

In data set [1], `C=C1C(=O)N[C@@H](C)C(=O)N(C)[C@@H](C)C(=O)N[C@@H]([C@H](OC(=O)[C@@H](NC(=O)CC)[C@H](O)C(C)C)C(C)C)C(=O)N(C)[C@@H]([C@@H](C)OC)C(=O)O[C@H](C(C)C)[C@H](NC(C)=O)C(=O)O[C@H](Cc2ccccc2)C(=O)N1C` [Compound (A1), FR900359] (Ac-[X1][dPhLac][NMeDha]A[NMeA][X1](Leu(3R-OH,Nα-propionyl))[NMeT](Me); ester 1-C) came in with a Papp A→B of 4.06 ×10⁻⁶ cm/s and a recovery of 65%. In the data set on MDCK-LE monolayers, the “% Fraction absorbed” value amounted to 59.7%. Moreover, the EPSA in data set [2] was 94 A^2. In addition, the “plasma stability / metabolite formation compared with human plasma” value in data set [3] was “Very similar results”. For the same compound, the “tolerability of the active doses” value in data set [4] is “well tolerated”.
